Data as given in patent US20140154389A1, “PRODUCTION OF CHEESE WITH S. THERMOPHILUS” (DuPont Nutrition BioSciences ApS, priority 2011, published 2014).

Tested on: urease enzyme of ur(+) S. thermophilus
Assay: Floating curd experiment in test tubes (Example 3)
Set-up: species or system Streptococcus thermophilus
Conditions: milk fermented at 35° C. to pH 4.65, sample heated at about 66° C. for 2 x 10 minutes; flurofamide added to the blend of Lactococci and ur(+) S. thermophilus
Procedure: Four experiments were conducted in which milk was treated with various bacteria. In experiment 1, only Lactococci bacteria were added. In experiment 2, a blend of Lactococci bacteria and ur(+) S. thermophilus bacteria were added. In experiment 3, a blend of Lactococci bacteria, ur(+) S. thermophilus bacteria, and the urease inhibitor flurofamide were added. In experiment 4, only ur(+) S. thermophilus bacteria were added.
In each experiment, the milk was fermented with the bacteria at 35° C. until the cheese reached a pH of 4.65. A sample of the cheese was placed into a test tube, which was heated at about 66° C. for about 10 minutes. After 10 minutes of heating, a small pipette or thin wire was used to agitate the sample. The samples were held at about 66° C. for another ten minutes, at which time the photograph of the test tubes depicted in FIG. 3, was taken.
Test tube 4 is a positive control that contains ur(+) S. thermophilus, which has urease enzymes that can hydrolyze urea in milk.

Question: How did the “floating curd in test tube” value turn out when `NP(N)(=O)NC(=O)c1ccc(F)cc1` [flurofamide] was run?
Answer: The value was “no floating curd”.
